The record followed here is article PMC11171218, “N-Benzylated 5-Hydroxybenzothiophene-2-carboxamides as Multi-Targeted Clk/Dyrk Inhibitors and Potential Anticancer Agents” (Cancers, 2024).

Data set [1] concerns T24 cells. Briefly: Cell cycle assay (PI staining, flow cytometry). The note with it: 30–50 µM, 24 h. The format is cell-based, human. As for the experimental part:
Cells were fixed with 75% ethanol and then stained with 50 μg/mL propidium iodide (PI; Cat# P4170, Sigma-Aldrich, St. Louis, MO, USA) at room temperature for 1 h. Cell cycle was analyzed by flow cytometry.
Figure 2 Analysis of cell cycle progression upon treatment with compounds 12 and 17. T24 cells were treated with DMSO (0.1%), 12 (30–50 µM), or 17 (30–50 µM) for 24 h. Cell cycle was examined by propidium iodide (PI) staining and flow cytometry. All data are expressed as the mean ± S.E.M. (n = 3).

A short description of data set [2]: Cell viability in normal cells, IEC-6. It is filed as cell-based. Conditions: rat, IEC-6 rat intestine epithelial cells (normal cells); for viability at 20 µM: mean (n = 3); for IC50: 50% inhibition. As for the experimental part:
(§1) All cells were purchased from Bioresource Collection and Research Center (Hsinchu, Taiwan) and cultured in corresponding media supplemented with 10% fetal bovine serum, 1 × Antibiotic-Antimycotic at 37 °C in a humidified incubator with 5% CO2. […] T24 cells were cultured in McCoy’s 5a media. IEC-6 cells were cultured in DMEM media supplemented with 5% fetal bovine serum, 1 × Antibiotic–Antimycotic, and 0.1 unit/mL insulin.
(§2) Cells were incubated with the Cell Counting Kit-8 (CCK-8) reagent (TargetMol, Boston, MA, USA) at 37 °C for 2 h. The cell viability was determined by spectrophotometer at 450 nm.

A further data set has as its system Bax. Briefly: Western blot, Bax in T24 cells. It is filed as cell-based, human. Conditions: 10–50 μM, 24 h. The source says: (§3) Cell lysates were sequentially suspended in commercial RIPA Buffer (pH 7.4; Cat# RB4475, Bio Basic, Markham, Ontario, Canada) containing Protease Inhibitor Cocktail and PhosSTOP (Merck, Darmstadt, Germany), boiled in sodium dodecyl sulphate (SDS) sample buffer, separated by SDS-polyacrylamide gel electrophoresis (PAGE), and electrophoresed onto a PVDF membrane. Antibodies used in this study were Bcl-2 (Cat#A19693, RRID: AB_2862738) and Bax (Cat# A0207, RRID: AB_2757021) from ABclonal (Boston, MA, USA); cleaved caspase-3 (Cat# 9662, RRID: AB_331439) and GAPDH (Cat# 8884, RRID:AB_11129865) from Cell Signaling Technology (Beverly, MA, USA). The labeled signals were determined using HRP-conjugated secondary antibodies and the Bio-rad ChemiDoc™ MP Imaging System (Berkeley, CA, USA).
(§4) Figure 4 Examining the effect of 12 and 17 on proapoptotic and antiapoptotic pathways. T24 cells were treated with DMSO (0.1%), 12 (30–50 µM), or 17 (30–50 µM) for 24 h. Expression levels of cleaved caspase-3, Bax, Bcl-2, and GAPDH were analyzed by Western blot by corresponding antibodies. The quantitation of the cleaved caspase-3/GAPDH, Bax/GAPDH, and Bcl-2/GAPDH ratio are shown. All data are expressed as the mean ± S.E.M. (n = 3). * p < 0.05, ** p < 0.01, *** p < 0.001 compared with the DMSO group.
Background: In western blotting, separated proteins are transferred to a membrane and probed.

The subject of another data set is Bcl-2. Briefly: Western blot, Bcl-2 in T24 cells. It is filed as cell-based, human. Conditions: for Decrease in the antiapoptotic marker Bcl-2: 50 μM; for Expression of antiapoptotic protein Bcl-2: 10–50 μM, 24 h, Western blot.
From the text: as §3, §4

For a further data set, the system named is cleaved caspase-3. Briefly: Western blot, cleaved caspase-3 in T24 cells. It is filed as cell-based, human. Conditions: 10–50 μM, 24 h.
From the text: as §3, §4

Data set [3] concerns T24 cells. Briefly: Apoptosis assay (Annexin V-FITC/PI, flow cytometry). The format is cell-based, human. The note with it: 24 h. As for the experimental part:
Apoptosis was examined by Annexin V-FITC/PI Apoptosis Kit (Cat# E-CK-A211, Elabscience, Houston, TX, USA) following the manufacturer’s protocol and analyzed by flow cytometry.
Figure 3 Annexin V and PI staining in T24 cells to investigate if compounds 12 and 17 could induce apoptotic death. T24 cells were treated with DMSO (0.1%), 12 (30–50 µM), or 17 (30–50 µM) for 24 h and then stained with Annexin V-FITC antibody and PI. The Annexin V-positive apoptotic cells were monitored using flow cytometry. All data are expressed as the mean ± S.E.M. (n = 3). * p < 0.05, ** p < 0.01 compared with the DMSO group. […] Best reading, upper row: Q1-UL 0.1%, Q1-UR 4.5%, Q1-LL 84.7%, Q1-LR 10.7%. Lower row: Q1-UL 0.2%, Q1-UR 5.1%, Q1-LL 84.9%, Q1-LR 9.8%. They are left out of lines because no compound is present.
(Flow cytometry measures light scatter and fluorescence of single cells or particles in a stream.)

The nature of data set [4]: Cell viability in normal cells, HaCaT. The format is cell-based. Conditions: human, HaCaT normal human keratinocytes; for viability at 20 µM: mean (n = 3); for IC50: 50% inhibition. As for the experimental part:
as §1, §2

Usually viability stands for the share of living cells, or the viability signal relative to a control. Read a low viability as a greater loss of cells. A word on the IC50: it is the concentration needed to halve the response being measured. Higher therefore signals weaker potency in that assay.

SMILES strings stand for the structures.

Take `COc1cccc(CNC(=O)c2cc3cc(O)ccc3s2)c1` [Compound 12, 5-Hydroxy-N-(3-methoxybenzyl)benzo[b]thiophene-2-carboxamide]: in the data set on T24 cells [1], the “Effect on cell cycle progression” value is recorded as “much weaker than those of compound 17”. In data set [2], the viability at 20 µM turned out to be 96% and the 50% inhibitory concentration (IC50) was above 20 µM. In the data set on Bax, the “Level of Bax” value was “increased the proapoptotic levels of cleaved caspase-3 and Bax”. Moreover, in the data set with Bcl-2, the “Decrease in the antiapoptotic marker Bcl-2” value is “approximately 0.5 fold” and the “Expression of antiapoptotic protein Bcl-2” value is listed as “decreased the expression of the antiapoptotic protein, Bcl-2”. The “Level of cleaved caspase-3” value with cleaved caspase-3 was “increased the proapoptotic levels of cleaved caspase-3 and Bax”. Also, the “Apoptotic cell population (Annexin V-positive)” value with T24 cells [3] (50 µM) is recorded as “increased the apoptotic cell population”. In data set [4], this molecule had a viability at 20 µM of 67.6% and an IC50 above 20 µM.

Take `O=C(NCc1cc(F)cc(F)c1)c1cc2cc(O)ccc2s1` [Compound 17, N-(3,5-Difluorobenzyl)-5-hydroxybenzo[b]thiophene-2-carboxamide]: the “Effect on cell cycle progression” value with T24 cells [1] is recorded as “retain the cells in the G2/M phase”. In data set [2], this molecule came in with a viability at 20 µM of 76.8% and an IC50 above 20 µM. Besides, the “Level of Bax” value in the data set with Bax is “increased the proapoptotic levels of cleaved caspase-3 and Bax”. For the same molecule, in the data set with Bcl-2, the “Decrease in the antiapoptotic marker Bcl-2” value is reported as “approximately 0.5 fold” and the “Expression of antiapoptotic protein Bcl-2” value is “decreased the expression of the antiapoptotic protein, Bcl-2”. Also, in the data set with cleaved caspase-3, the “Level of cleaved caspase-3” value was “increased the proapoptotic levels of cleaved caspase-3 and Bax”. Further, the “Apoptotic cell population (Annexin V-positive)” value with T24 cells [3] (30 and 50 μM) was “dose-dependently increased the apoptotic cell population”. Further, in data set [4], the viability at 20 µM is 64.9% and the concentration for half-maximal inhibition (IC50) is above 20 µM.
